Like-named read-outs stand apart in the source and are kept apart here.
Legend:
[1] = molecular target: T1, urea transporter polypeptide (Oryctolagus cuniculus, UniProt Q28614); test: cell-based; settings: for inhibition of urea transport by urea analogues: 150 mM analogue; for effect of cAMP analogues on urea transporter-facilitated urea transport: 30 minute preincubation, 1 mM per analogue; for effect on urea uptake of replacing mannitol in the incubation solution: 100 mM replacing mannitol
T1 sequence (Q28614 1-397): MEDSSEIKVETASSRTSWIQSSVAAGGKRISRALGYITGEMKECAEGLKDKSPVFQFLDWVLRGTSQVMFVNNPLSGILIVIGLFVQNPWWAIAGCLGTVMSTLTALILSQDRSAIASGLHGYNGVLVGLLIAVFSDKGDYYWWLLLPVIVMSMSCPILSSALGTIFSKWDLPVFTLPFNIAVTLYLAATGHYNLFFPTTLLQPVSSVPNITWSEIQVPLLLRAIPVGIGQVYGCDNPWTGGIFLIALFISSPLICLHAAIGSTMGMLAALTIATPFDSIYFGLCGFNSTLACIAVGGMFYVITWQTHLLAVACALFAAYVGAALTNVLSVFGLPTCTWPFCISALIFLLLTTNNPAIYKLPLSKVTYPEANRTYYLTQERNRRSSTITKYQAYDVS
Procedure: (§1) The rabbit kidney medulla mRNA that is size fractionated by the preparative agarose gel electrophoresis was analyzed by oocyte expression assay. Large, fully grown oocytes (stage 5 and 6) with a diameter of 1.2-1.3 mm were hand dissected from ovarian fragments of Xenopus laevis, treated with 2 mg/ml type 1A collagenase to remove follicular cells and incubated in Barth's solution (in mM: 88 NaCl; 0.82 MgSO4; 0.33 Ca (NO3)2; 0.41 CaCl2; 2.4 NaHCO3; 10 HEPES, pH 7.4; 200 mosmol). After 16-24 hours, oocytes were injected with about 50 nl of mRNA or water and incubated in Barth's solution with gentamicin at about 18° C. for another three days after which uptake of ^14 C-urea was measured.
(§2) Unlabelled urea was deionized by passing it through an ion exchange column (AG501-X8 (D), 20-50 Mesh, Bio Rad) immediately before use. The uptake solution consisted of 2 microcuries ^14 C-urea; 1 mM urea; 200 mM mannitol; […]; 1 mM MgCl2; 1 mM CaCl2; 10 mM HEPES; and 5 mM TRIS, unless otherwise specified. In all uptake experiments oocytes were pre-incubated in uptake solution minus urea for one hour. After completion of the uptake, oocytes were washed with ice-cold wash solution (uptake solution without the labelled urea), dissolved in 10% SDS and used for scintillation counting.
Urea transport in the mammalian kidney is generally considered to be passive, although there is some evidence for active ion coupled transport. In studies addressing ion dependencies, urea uptake was measured in oocytes injected with urea transporter cRNA, as described above in Example 1. In the incubation solution, however, mannitol was replaced by NaCl (100 mM), choline chloride (100 mM) or sodium acetate (100 mM).
To study the uptake inhibition by phloretin, phloretin (Sigma) was dissolved in ethanol at 0.5M and added to the uptake solution to give the desired final concentration of 0.35 mM and 0.70 mM. The concentration of ethanol was no more than 0.1%. Ethanol at the same concentration is added to uptake solution without phloretin. Following 15 min pre-incubation in phloretin, ^14 C-urea was added and urea flux was then measured during 90 seconds.
For inhibition studies using urea analogues, all analogues were deionized as described in Example 1 immediately before use. […] Chou and Knepper, 257 Am. J. Physiol. F359-365 (1989).
It is possible that facilitation of urea transport by vasopressin is the result of direct phosphorylation of the transporter or of recruitment of functional transporters from intracellular vesicle pools.

[2] = molecular target: T1, urea transporter polypeptide; test: Two-microelectrode voltage clamp on urea transporter cRNA-injected oocytes; format: cell-based, rabbit; settings: urea 1 and 100 mM; holding potential -60 mV
Procedure: Electrophysiological studies are in agreement with this finding. Electrophysiological measurements were made on oocytes 3-4 days after injection with urea transporter cRNA-injected oocytes using conventional two-microelectrode voltage clamp methods (Axoclamp-2A, Axon Instruments). Membrane current was measured in a standard bath of 96 mM NaCl; 2 mM KCl; 1.8 mM CaCl2; 1.0 mM MgCl2; and 5 mM HEPES, pH 7.4, at a holding potential of -60 mV.

[3] = tested on: water-injected control oocytes; settings: not told, 1000 µM
Procedure: as §1, §2

[4] = tested on: urea transport induced by rabbit kidney medulla poly(A)+ RNA; test: 14C-urea uptake into Xenopus oocytes injected with poly(A)+ RNA from rabbit kidney medulla; format: cell-based; settings: phloretin 0.25 mM, 14C-urea 50 mM
Procedure: Messenger RNA, fractionated as above, was collected in 0.6 ml fractions. In preliminary experiments, uptake of ^14 C-labelled urea (50 mM) was measured three days after injection at 5, 30 and 60 minute intervals. […] Phloretin at 0.25 mM inhibited the 30 minute uptake of urea by approximately 50%.

[5] = tested on: urea transport in UT1 cRNA-injected oocytes; test: 14C-urea uptake into Xenopus oocytes injected with UT1 cRNA; format: cell-based, Xenopus laevis
Procedure: as §1, §2

[6] = read-out: inhibition of urea uptake

NC(N)=S [Thiourea, thiourea]
inhibition of urea transport by urea analogues ([1]; 14C-urea 1 mM): 38%

CCCC(=O)Nc1ncnc2c1ncn2[C@@H]1O[C@@H]2COP(=O)(O)O[C@H]2[C@H]1OC(=O)CCC [dibutyryl cyclic-AMP]
effect of cAMP analogues on urea transporter-facilitated urea transport [1]: no effect

[Cl-].[Na+] [NaCl]
effect on urea uptake of replacing mannitol in the incubation solution [1]: did not alter urea uptake

Nc1ncnc2c1nc(Br)n2[C@@H]1O[C@@H]2COP(=O)(O)O[C@H]2[C@H]1O [8-bromo-cAMP]
effect of cAMP analogues on urea transporter-facilitated urea transport [1]: no effect

CN(C)C(N)=O [1,1-dimethylurea]
inhibition of urea transport by urea analogues ([1]; 14C-urea 1 mM): no significant effect

NC(N)=O [urea]
maximum uptake of 14C-urea ([1]; 14C-urea 1 mM, between 10 and 30 minutes): approximately 250 pmoles/oocyte | saturation of urea transporter polypeptide-mediated urea transport ([1]; concentration range between 1 and 200 mM urea): no saturation | urea permeability of urea transporter-injected oocytes ([1]; not told, 1000 µM): 45 ×10⁻⁶ cm/s | membrane current evoked by bath applied urea [2]: did not evoke a significant current | permeability of water-injected control oocytes for urea [3]: 1.9 ×10⁻⁶ cm/s

CC(=O)O [sodium acetate]
effect on urea uptake of replacing mannitol in the incubation solution [1]: no effect

O=C(CCc1ccc(O)cc1)c1c(O)cc(O)cc1O [phloretin]
inhibition of the 30 minute uptake of urea [4]: approximately 50% | inhibition at 350 µM [1, 6]: 48% | inhibition at 700 µM [1, 6]: 78% | inhibition at 350 µM ([1]; read-out: inhibition of urea uptake (phloretin-sensitivity of clone pool)): ~50% | phloretin sensitivity of UT1-induced urea transport [5]: not phloretin-sensitive

CNC(=O)NC [1,3 dimethylurea, 1,3-dimethylurea]
inhibition of urea transport by urea analogues ([1]; 14C-urea 1 mM): 65%

Nc1ncnc2c1ncn2C1OC2COP(O)(=S)OC2C1O (stereo not shown) [Sp-cAMPS]
effect of cAMP analogues on urea transporter-facilitated urea transport [1]: no effect

C[N+](C)(C)CCO.[Cl-] [choline chloride]
effect on urea uptake of replacing mannitol in the incubation solution [1]: no effect

CC(N)=O [acetamide]
inhibition of urea transport by urea analogues ([1]; 14C-urea 1 mM): no significant effect

CNC(N)=O [N-methylurea]
inhibition of urea transport by urea analogues ([1]; 14C-urea 1 mM): 38%

B1: urea transporter: 397-amino acid residue membrane glycoprotein from rabbit kidney medulla (SEQ ID NO.: 2), expressed from UT2 cRNA (protein)
chain: T1 sequence (Q28614 1-397)
modifications: glycosylated
increase of the permeability of oocytes to urea ([1]; versus water-injected control oocytes): 23 fold

Source: patent US5441875A, “Urea transporter polypeptide” (Brigham and Women's Hospital, priority 1993, dated 1995)
